From ChEMBL document CHEMBL3044899, “Effect of chloro and fluoro groups on the antimicrobial activity of 2,5-disubstituted 4-thiazolidinones: a comparative study” (2012)
The source made the active and inactive calls. The rule behind the calls is not given here.

How the values were obtained:
[1] = test system: Pseudomonas aeruginosa; test: Antibacterial activity against Pseudomonas aeruginosa MTCC 2453 at 100 ug/ml by cup-plate method; assay type: functional; details: read-out: DIZ
[2] = test system: Candida albicans; test: Antifungal activity against Candida albicans MTCC 227 at 50 to 300 ug/ml by cup-plate method; assay type: functional, organism-based
[3] = test system: Escherichia coli; test: Antibacterial activity against Escherichia coli MTCC 739 at 200 ug/ml by cup-plate method; assay type: functional; details: read-out: DIZ
[4] = test system: Pseudomonas aeruginosa; test: Antibacterial activity against Pseudomonas aeruginosa MTCC 2453 at 50 ug/ml by cup-plate method; assay type: functional; details: read-out: DIZ
[5] = test system: Pseudomonas aeruginosa; test: Antibacterial activity against Pseudomonas aeruginosa MTCC 2453 at 200 ug/ml by cup-plate method; assay type: functional; details: read-out: DIZ
[6] = test system: Bacillus subtilis; test: Antibacterial activity against Bacillus subtilis MTCC 121 at 100 ug/ml by cup plate method; assay type: functional; details: read-out: DIZ
[7] = test system: Staphylococcus aureus; test: Antibacterial activity against Staphylococcus aureus MTCC 96 at 300 ug/ml by cup-plate method; assay type: functional; details: read-out: DIZ
[8] = test system: Pseudomonas aeruginosa; test: Antibacterial activity against Pseudomonas aeruginosa MTCC 2453 at 300 ug/ml by cup-plate method; assay type: functional; details: read-out: DIZ
[9] = test system: Staphylococcus aureus; test: Antibacterial activity against Staphylococcus aureus MTCC 96 at 100 ug/ml by cup-plate method; assay type: functional; details: read-out: DIZ
[10] = test system: Staphylococcus aureus; test: Antibacterial activity against Staphylococcus aureus MTCC 96 at 50 ug/ml by cup-plate method; assay type: functional; details: read-out: DIZ
[11] = test system: Escherichia coli; test: Antibacterial activity against Escherichia coli MTCC 739 by cup-plate method; assay type: functional, organism-based
[12] = test system: Bacillus subtilis; test: Antibacterial activity against Bacillus subtilis MTCC 121 at 300 ug/ml by cup plate method; assay type: functional; details: read-out: DIZ
[13] = test system: Escherichia coli; test: Antibacterial activity against Escherichia coli MTCC 739 at 50 ug/ml by cup-plate method; assay type: functional; details: read-out: DIZ
[14] = test system: Pseudomonas aeruginosa; test: Antibacterial activity against Pseudomonas aeruginosa MTCC 2453 by cup-plate method; assay type: functional, organism-based
[15] = test system: Escherichia coli; test: Antibacterial activity against Escherichia coli MTCC 739 at 100 ug/ml by cup-plate method; assay type: functional; details: read-out: DIZ
[16] = test system: Bacillus subtilis; test: Antibacterial activity against Bacillus subtilis MTCC 121 by cup plate method; assay type: functional, organism-based
[17] = test system: Staphylococcus aureus; test: Antibacterial activity against Staphylococcus aureus MTCC 96 by cup-plate method; assay type: functional, organism-based
[18] = test system: Bacillus subtilis; test: Antibacterial activity against Bacillus subtilis MTCC 121 at 50 ug/ml by cup plate method; assay type: functional; details: read-out: DIZ
[19] = test system: Bacillus subtilis; test: Antibacterial activity against Bacillus subtilis MTCC 121 at 200 ug/ml by cup plate method; assay type: functional; details: read-out: DIZ
[20] = test system: Escherichia coli; test: Antibacterial activity against Escherichia coli MTCC 739 at 300 ug/ml by cup-plate method; assay type: functional; details: read-out: DIZ
[21] = test system: Staphylococcus aureus; test: Antibacterial activity against Staphylococcus aureus MTCC 96 at 200 ug/ml by cup-plate method; assay type: functional; details: read-out: DIZ

O=C1N/C(=N\c2ccc(F)c(Cl)c2)S/C1=C\c1ccccc1Cl
zone of inhibition at 100 µg/mL [1]: 10 mm | Activity [2]: inactive | zone of inhibition at 200 µg/mL [3]: 9 mm | zone of inhibition at 50 µg/mL [4]: 10 mm | zone of inhibition at 200 µg/mL [5]: 12 mm | zone of inhibition at 100 µg/mL [6]: 12 mm | zone of inhibition at 300 µg/mL [7]: 14 mm | zone of inhibition at 300 µg/mL [8]: 12 mm | zone of inhibition at 100 µg/mL [9]: 11 mm | zone of inhibition at 50 µg/mL [10]: 10 mm | Activity [11]: Dose-dependent effect | zone of inhibition at 300 µg/mL [12]: 14 mm | zone of inhibition at 50 µg/mL [13]: 8 mm | Activity [14]: Dose-dependent effect | zone of inhibition at 100 µg/mL [15]: 8 mm | Activity [16]: Dose-dependent effect | Activity [17]: Dose-dependent effect | zone of inhibition at 50 µg/mL [18]: 10 mm | zone of inhibition at 200 µg/mL [19]: 14 mm | zone of inhibition at 300 µg/mL [20]: 10 mm | zone of inhibition at 200 µg/mL [21]: 12 mm

O=C1N/C(=N\c2ccc(Cl)cc2)S/C1=C\c1ccccc1Cl
zone of inhibition at 100 µg/mL [1]: 9 mm | Activity [2]: inactive | zone of inhibition at 200 µg/mL [3]: 10 mm | zone of inhibition at 50 µg/mL [4]: 9 mm | zone of inhibition at 200 µg/mL [5]: 9 mm | zone of inhibition at 100 µg/mL [6]: 8 mm | zone of inhibition at 300 µg/mL [7]: 10 mm | zone of inhibition at 300 µg/mL [8]: 9 mm | zone of inhibition at 100 µg/mL [9]: 8 mm | zone of inhibition at 50 µg/mL [10]: 8 mm | Activity [11]: Dose-dependent effect | zone of inhibition at 300 µg/mL [12]: 10 mm | zone of inhibition at 50 µg/mL [13]: 9 mm | Activity [14]: Dose-dependent effect | zone of inhibition at 100 µg/mL [15]: 9 mm | Activity [16]: Dose-dependent effect | Activity [17]: Dose-dependent effect | zone of inhibition at 50 µg/mL [18]: 8 mm | zone of inhibition at 200 µg/mL [19]: 9 mm | zone of inhibition at 300 µg/mL [20]: 9 mm | zone of inhibition at 200 µg/mL [21]: 9 mm

O=C1N/C(=N\c2ccc(Cl)cc2)S/C1=C\c1ccc(O)cc1
zone of inhibition at 100 µg/mL [1]: 8 mm | Activity [2]: inactive | zone of inhibition at 200 µg/mL [3]: 8 mm | zone of inhibition at 50 µg/mL [4]: 7 mm | zone of inhibition at 200 µg/mL [5]: 8 mm | zone of inhibition at 100 µg/mL [6]: 7 mm | zone of inhibition at 300 µg/mL [7]: 8 mm | zone of inhibition at 300 µg/mL [8]: 9 mm | zone of inhibition at 100 µg/mL [9]: 7 mm | zone of inhibition at 50 µg/mL [10]: 6 mm | Activity [11]: Dose-dependent effect | zone of inhibition at 300 µg/mL [12]: 8 mm | zone of inhibition at 50 µg/mL [13]: 7 mm | Activity [14]: Dose-dependent effect | zone of inhibition at 100 µg/mL [15]: 7 mm | Activity [16]: Dose-dependent effect | Activity [17]: Dose-dependent effect | zone of inhibition at 50 µg/mL [18]: 6 mm | zone of inhibition at 200 µg/mL [19]: 7 mm | zone of inhibition at 300 µg/mL [20]: 8 mm | zone of inhibition at 200 µg/mL [21]: 7 mm

O=C1N/C(=N\c2cccc(Cl)c2)S/C1=C\c1ccccc1[N+](=O)[O-]
zone of inhibition at 100 µg/mL [1]: 8 mm | Activity [2]: inactive | zone of inhibition at 200 µg/mL [3]: 9 mm | zone of inhibition at 50 µg/mL [4]: 7 mm | zone of inhibition at 200 µg/mL [5]: 9 mm | zone of inhibition at 100 µg/mL [6]: 9 mm | zone of inhibition at 300 µg/mL [7]: 10 mm | zone of inhibition at 300 µg/mL [8]: 9 mm | zone of inhibition at 100 µg/mL [9]: 9 mm | zone of inhibition at 50 µg/mL [10]: 8 mm | Activity [11]: Dose-dependent effect | zone of inhibition at 300 µg/mL [12]: 10 mm | zone of inhibition at 50 µg/mL [13]: 6 mm | Activity [14]: Dose-dependent effect | zone of inhibition at 100 µg/mL [15]: 8 mm | Activity [16]: Dose-dependent effect | Activity [17]: Dose-dependent effect | zone of inhibition at 50 µg/mL [18]: 9 mm | zone of inhibition at 200 µg/mL [19]: 9 mm | zone of inhibition at 300 µg/mL [20]: 9 mm | zone of inhibition at 200 µg/mL [21]: 10 mm

O=C1N/C(=N\c2ccc(F)c(Cl)c2)S/C1=C\c1ccc(O)cc1
zone of inhibition at 100 µg/mL [1]: 9 mm | Activity [2]: inactive | zone of inhibition at 200 µg/mL [3]: 10 mm | zone of inhibition at 50 µg/mL [4]: 8 mm | zone of inhibition at 200 µg/mL [5]: 10 mm | zone of inhibition at 100 µg/mL [6]: 10 mm | zone of inhibition at 300 µg/mL [7]: 11 mm | zone of inhibition at 300 µg/mL [8]: 10 mm | zone of inhibition at 100 µg/mL [9]: 10 mm | zone of inhibition at 50 µg/mL [10]: 8 mm | Activity [11]: Dose-dependent effect | zone of inhibition at 300 µg/mL [12]: 11 mm | zone of inhibition at 50 µg/mL [13]: 8 mm | Activity [14]: Dose-dependent effect | zone of inhibition at 100 µg/mL [15]: 9 mm | Activity [16]: Dose-dependent effect | Activity [17]: Dose-dependent effect | zone of inhibition at 50 µg/mL [18]: 9 mm | zone of inhibition at 200 µg/mL [19]: 10 mm | zone of inhibition at 300 µg/mL [20]: 10 mm | zone of inhibition at 200 µg/mL [21]: 10 mm

O=C1N/C(=N\c2cccc(Cl)c2)S/C1=C\c1ccccc1Cl
zone of inhibition at 100 µg/mL [1]: 7 mm | Activity [2]: inactive | zone of inhibition at 200 µg/mL [3]: 8 mm | zone of inhibition at 50 µg/mL [4]: 6 mm | zone of inhibition at 200 µg/mL [5]: 7 mm | zone of inhibition at 100 µg/mL [6]: 8 mm | zone of inhibition at 300 µg/mL [7]: 9 mm | zone of inhibition at 300 µg/mL [8]: 8 mm | zone of inhibition at 100 µg/mL [9]: 8 mm | zone of inhibition at 50 µg/mL [10]: 7 mm | Activity [11]: Dose-dependent effect | zone of inhibition at 300 µg/mL [12]: 9 mm | zone of inhibition at 50 µg/mL [13]: 7 mm | Activity [14]: Dose-dependent effect | zone of inhibition at 100 µg/mL [15]: 7 mm | Activity [16]: Dose-dependent effect | Activity [17]: Dose-dependent effect | zone of inhibition at 50 µg/mL [18]: 7 mm | zone of inhibition at 200 µg/mL [19]: 8 mm | zone of inhibition at 300 µg/mL [20]: 8 mm | zone of inhibition at 200 µg/mL [21]: 8 mm

O=C1N/C(=N\c2ccc(F)c(Cl)c2)S/C1=C\c1cccc([N+](=O)[O-])c1
zone of inhibition at 100 µg/mL [1]: 10 mm | Activity [2]: inactive | zone of inhibition at 200 µg/mL [3]: 9 mm | zone of inhibition at 50 µg/mL [4]: 8 mm | zone of inhibition at 200 µg/mL [5]: 11 mm | zone of inhibition at 100 µg/mL [6]: 12 mm | zone of inhibition at 300 µg/mL [7]: 16 mm | zone of inhibition at 300 µg/mL [8]: 12 mm | zone of inhibition at 100 µg/mL [9]: 12 mm | zone of inhibition at 50 µg/mL [10]: 11 mm | Activity [11]: Dose-dependent effect | zone of inhibition at 300 µg/mL [12]: 15 mm | zone of inhibition at 50 µg/mL [13]: 7 mm | Activity [14]: Dose-dependent effect | zone of inhibition at 100 µg/mL [15]: 8 mm | Activity [16]: Dose-dependent effect | Activity [17]: Dose-dependent effect | zone of inhibition at 50 µg/mL [18]: 12 mm | zone of inhibition at 200 µg/mL [19]: 14 mm | zone of inhibition at 300 µg/mL [20]: 10 mm | zone of inhibition at 200 µg/mL [21]: 14 mm

O=C1N/C(=N\c2cccc(Cl)c2)S/C1=C\c1ccc(O)cc1
zone of inhibition at 100 µg/mL [1]: 8 mm | Activity [2]: inactive | zone of inhibition at 200 µg/mL [3]: 8 mm | zone of inhibition at 50 µg/mL [4]: 7 mm | zone of inhibition at 200 µg/mL [5]: 9 mm | zone of inhibition at 100 µg/mL [6]: 7 mm | zone of inhibition at 300 µg/mL [7]: 10 mm | zone of inhibition at 300 µg/mL [8]: 10 mm | zone of inhibition at 100 µg/mL [9]: 9 mm | zone of inhibition at 50 µg/mL [10]: 8 mm | Activity [11]: Dose-dependent effect | zone of inhibition at 300 µg/mL [12]: 9 mm | zone of inhibition at 50 µg/mL [13]: 7 mm | Activity [14]: Dose-dependent effect | zone of inhibition at 100 µg/mL [15]: 7 mm | Activity [16]: Dose-dependent effect | Activity [17]: Dose-dependent effect | zone of inhibition at 50 µg/mL [18]: 6 mm | zone of inhibition at 200 µg/mL [19]: 8 mm | zone of inhibition at 300 µg/mL [20]: 9 mm | zone of inhibition at 200 µg/mL [21]: 9 mm
